Measurements from patent US20260305610A1, “TRIAZOLE COMPOUND, AND PREPARATION METHOD THEREFOR, HERBICIDAL COMPOSITION AND USE THEREOF” (QINGDAO KINGAGROOT CHEMICAL COMPOUND CO., LTD., priority 2023, published 2026).

Tests used:
[1] = test system: monocotyledonous and dicotyledonous weeds; assay: Pre-emergence test experiment (weeds); type: in vivo; design: key: 9: completely dead; 8: growth control rate is greater than or equal to 90% and less than 100%; 7: growth control rate is greater than or equal to 80% and less than 90%; 6: growth control rate is greater than or equal to 70% and less than 80%; growth control rate is greater than or equal to 50% and less than 70%; 4: growth control rate is greater than or equal to 30% and less than 50%; growth control rate is greater than or equal to 20% and less than 30%; growth control rate is greater than or equal to 10% and less than 20%; growth control rate is less than 10%; 0: no effect; details: 30 g a.i./ha
major crops = assay: Pre-emergence test experiment (crops); type: in vivo; design: key: 9: completely dead; 8: growth control rate is greater than or equal to 90% and less than 100%; 7: growth control rate is greater than or equal to 80% and less than 90%; 6: growth control rate is greater than or equal to 70% and less than 80%; growth control rate is greater than or equal to 50% and less than 70%; 4: growth control rate is greater than or equal to 30% and less than 50%; growth control rate is greater than or equal to 20% and less than 30%; growth control rate is greater than or equal to 10% and less than 20%; growth control rate is less than 10%; 0: no effect; details: 30 g a.i./ha

| Compound | Pre-emergence activity level (growth control rate) on Amaranthus retroflexus [1] | Pre-emergence activity level (growth control rate) on Descurainia sophia [1] | Pre-emergence activity level (growth control rate) on Digitaria sanguinalis [1] | Pre-emergence activity level (growth control rate) on Setaria viridis [1] | Pre-emergence activity level (growth control rate) on Solanum nigrum [1] | Pre-emergence activity level (growth control rate) on Veronica [1] | Pre-emergence plant damage level (growth control rate) on Corn (major crops) | Pre-emergence plant damage level (growth control rate) on Cotton (major crops) | Pre-emergence plant damage level (growth control rate) on Soybean (major crops) |
| --- | --- | --- | --- | --- | --- | --- | --- | --- | --- |
| CCc1ccc(-n2cnc(C(F)(F)F)n2)nc1Oc1cccc(OC(F)(F)F)c1 [Compound 71] | 9 | 9 | 9 | 9 | 9 | 9 | 0 | 0 | 0 |
| CCc1ccc(-n2cnc(C(F)F)n2)nc1Oc1cccc(C(F)(F)F)c1 [Compound 72] | 9 | 9 | 7 (growth control rate is greater than or equal to 80% and less than 90%) | 8 (growth control rate is greater than or equal to 90% and less than 100%) | 9 | 9 | 0 | 0 | 0 |
| CCc1ccc(-n2cnc(C(F)F)n2)nc1Oc1cccc(OC(F)(F)F)c1 [Compound 73] | 9 | 9 | 8 (growth control rate is greater than or equal to 90% and less than 100%) | 8 (growth control rate is greater than or equal to 90% and less than 100%) | 9 | 9 | 0 | 0 | 0 |
| CCc1ccc(-n2cnc(C(F)F)n2)nc1Oc1cncc(C(F)(F)F)c1 [Compound 74] | 9 | 9 | 9 | 8 (growth control rate is greater than or equal to 90% and less than 100%) | 9 | 9 | 0 | 0 | 0 |
| Cc1ccc(-n2cnc(C(F)(F)F)n2)nc1Oc1ccc(F)c(OC(F)F)c1 [Compound 75] | 9 | 9 | 9 | 9 | 9 | 9 | 0 | 0 | 0 |
| COc1cc(Oc2ccc(F)c(C(F)(F)F)c2)nc(-n2cnc(C(F)(F)F)n2)c1 [Compound 76] | 9 | 9 | 9 | 8 (growth control rate is greater than or equal to 90% and less than 100%) | 9 | 9 | 0 | 0 | 0 |
| COCc1ccc(-n2cnc(C(F)(F)C(F)(F)F)n2)nc1Oc1cccc(OC(F)(F)F)c1 [Compound 77] | 9 | 9 | 8 (growth control rate is greater than or equal to 90% and less than 100%) | 8 (growth control rate is greater than or equal to 90% and less than 100%) | 7 (growth control rate is greater than or equal to 80% and less than 90%) | 9 | 0 | 0 | 0 |
| COc1cc(Oc2cccc(OC(F)(F)F)c2)nc(-n2cnc(C(F)(F)F)n2)c1 [Compound 78] | 9 | 9 | 9 | 8 (growth control rate is greater than or equal to 90% and less than 100%) | 8 (growth control rate is greater than or equal to 90% and less than 100%) | 9 | 0 | 0 | 0 |
| Cc1ccc(-n2cnc(C(F)F)n2)nc1Oc1cccc(OC(F)F)c1 [Compound 79] | 9 | 9 | 9 | 9 | 8 (growth control rate is greater than or equal to 90% and less than 100%) | 9 | 0 | 0 | 0 |
| Cc1ccc(-n2cnc(C(F)F)n2)nc1Oc1ccc(F)c(OC(F)(F)F)c1 [Compound 80] | 9 | 9 | 9 | 8 (growth control rate is greater than or equal to 90% and less than 100%) | 9 | 9 | 0 | 0 | 0 |
| Cc1ccc(-n2cnc(C(F)F)n2)nc1Oc1cccc(OC(F)(F)F)c1 [Compound 83] | 9 | 9 | 9 | 9 | 9 | 9 | 0 | 0 | 0 |
| Cc1ccc(-n2cnc(C(F)F)n2)nc1Oc1cccc(C(F)F)c1 [Compound 84] | 9 | 9 | 9 | 9 | 9 | 9 | 0 | 0 | 0 |
